The results in this text go back to US10179194B2, “Self-assembling peptides, peptidomimetics and peptidic conjugates as building blocks for biofabrication and printing” (Agency for Science, Technology and Research, priority 2013, dated 2019).

Peptide text beside a SMILES is read from it. Bounds are passed on as bounds.

A short description of data set [1]: Self-assembly into aggregates and fibres in aqueous solution. It counts as physicochemical. Here is the method: It is in some embodiments stable in aqueous solution at physiological conditions at ambient temperature for a period of time in the range from 1 day to 1 month or more. It may in some embodiments be stable in aqueous solution at physiological conditions at 90° C. for at least 1 hour, at least 2 hours, at least 3 hours, at least 4 hours or at least 5 hours An amphiphilic linear sequence of an amphiphilic peptide and/or peptoid including an amphiphilic linear peptide and/or peptoid, is capable of providing a self assembling α-helical fiber in aqueous solution under physiological conditions. The peptides/peptoids (typically 3-7-mers) in the L- or D-form can self assemble into supramolecular helical fibers which are organized into mesh-like structures mimicking biological substances such as collagen. It has previously been observed in X-ray crystallography that peptides of a length of 3 to 6 amino acids with repetitive alanine containing sequences and an acetylated […] take a helical conformation (Hatakeyama, Y, et al, Angew. Chem. Int. Ed. (2009) 8695-8698). Using peptides with an amphiphilic sequence, Ac-LD6 (L), the formation of aggregates has for example been observed already at 0.1 mg/ml. […]

Data set [2] can be described thus: Stimuli-responsive gelation (minimum gelation concentration). It counts as physicochemical. How it is done:
Ac-LIVAGK-NH2 (SEQ ID NO: 20) forms hydrogels at 20 mg/mL in water, 12 mg/mL in saline, 7.5 mg/mL in PBS, and 10 mg/mL in 10 mM NaOH.(B) The rigidity, as represented by the storage modulus (G′), of 20 mg/mL Ac-LIVAGK-NH2 hydrogels increases by one order of magnitude to 10 kPa when dissolved in normal saline(NaCl) as compared to water at 1 kPa. In phosphate buffered saline (PBS), G′ increases to 40 kPa. The stiffness also increases with peptide concentration. (C) The addition of sodium hydroxide (NaOH) enhances the rigidity of 20 mg/mL Ac-LIVAGK-NH2 (SEQ ID NO: 20) hydrogel from 1 kPa in water to 80 kPa. The rigidity increases with NaOH concentration. (D) Hydrogel droplet arrays of various dimensions can be obtained by mixing equivolumes of peptide solution (such as 10 mg/mL Ac-ILVAGK-NH2)(SEQ ID NO: 20) and PBS containing small molecules. Bioactive moieties can also be encapsulated; 1 μL droplets with green food colouring and 488 nm emission quantum dots, 2 μL droplets with red food colouring and 568 nm emission fluorophore conjugated to a secondary antibody, and 5 μL droplets with methylene blue and DAPI. (E) Hydrogel “noodles” are obtained by extruding 5 mg/mL Ac-ILVAGK-NH2 (SEQ ID NO: 20) solution through a 27 gauge needle into a concentrated salt bath.
• Peptide sequence: Ac-LIVAGD-COOH (SEQ ID NO: 17) • Molecular weight: 629.56 • (1) Temperature Sweep Study for Ac-LD6 (L) (SEQ ID NO : 17): • (a) The peptide mixture was then placed on rheometer lower plate. […]

Data set [3] is described as follows: Rheology of hydrogels, storage modulus G'. It counts as physicochemical. Here is the method:
Hydrogel samples were prepared in polydimethysiloxane moulds to obtain approximately 1 mm thick, 8 mm diameter discs. Dynamic strain and oscillatory frequency sweep experiments were carried out using the ARES-G2 Rheometer (TA Instruments, Piscataway, N.J.) with 8 mm titanium parallel plate geometry. The effects of varying several parameters on viscoelastic properties were studied as follows: • (1) Effect of varying concentration • (2) Effect of varying ionic strength of the solution (water vs saline vs PBS) • (3) Effect of varying pH Extrusion from 27 Gauge Needle
Rheology. Hydrogel samples were prepared in polydimethysiloxane moulds to obtain approximately 1 mm thick, 8 mm diameter discs. Dynamic strain and oscillatory frequency sweep experiments were carried out using the ARES-G2 Rheometer (TA Instruments, Piscataway, N.J.) with 8 mm titanium parallel plate geometry.

Data set [4] concerns New Zealand White rabbits. Nature of the data set: Induced disc degeneration rabbit model (injectable therapy). It counts as in vivo. Here is the method:
FIG. 14 Evaluation of an injectable therapy in a rabbit model of degenerative disc disease. • (A) In this animal model, three lumbar intervertebral discs between the L3 and L6 vertebrae were punctured and their nucleus pulposus (NP) content aspirated. One month post-injury, two different treatments were injected into the NP space. The first treatment consists of 20 mg/mL of Ac-LIVAGK-NH2 (SEQ ID NO: 20) in PBS and gadolinium-DTPA (Gd-DTPA), a T1 MRI contrast agent. The second therapy consists of labeled donor rabbit NP cells encapsulated in 20 mg/mL of Ac-LIVAGK-NH2 (SEQ ID NO: 20) in PBS. The cells were labeled with FITC-conjugated iron oxide nanoparticles, which are T2 MRI contrastophores. […] In comparison, damaged untreated discs (D) are darker. […] The healthy disc was obtained from animal R245 (disc L2/L3), while the damaged disc was from R334 (L4/L5). The hydrogel treated disc imaged is L3/L4 from R245 and the cell therapy disc is L5/L6 of R328. At higher magnification, faintly fluorescent cells could be observed for discs that received cell therapy.
Induced disc degeneration rabbit model. […]
We designed an injectable therapy wherein our stimuli-responsive peptide Ac-LIVAGK-NH2 (SEQ ID NO: 20) was administered as a low viscosity solution which subsequently gels in situ. This therapy was evaluated in the induced disc degeneration rabbit model. […]

Another data set relates to guinea pigs. As to conditions: guinea pig, in vivo.
The test system of data set [5] is Chinese hamster ovary cells.

With Ac-LIVAGD-OH [Ac-LD6 (L)], in data set [1], the “concentration at which formation of aggregates is observed” value was 100 µg/mL and the “concentration at which peptide monomers align to form fibrous structures” value amounted to 1000 µg/mL.
With `CC[C@H](C)[C@H](NC(=O)[C@H](CC(C)C)NC(C)=O)C(=O)N[C@H](C(=O)N[C@@H](C)C(=O)NCC(=O)N[C@@H](CCCCN)C(N)=O)C(C)C` [Ac-LIVAGK-NH2] (Ac-LIVAGK-NH2), the “concentration at which hydrogels form” value in data set [2] (in 10 mM NaOH) was determined as 10000 µg/mL. The “concentration at which hydrogels form” value in data set [2] (in PBS) was 7500 µg/mL. The “concentration at which hydrogels form” value in data set [2] (in saline) turned out to be 12000 µg/mL. In addition, in data set [2] (in water), the “concentration at which hydrogels form” value is 20000 µg/mL. Besides, the “storage modulus (G′)” value in data set [3] (20 mg/mL hydrogel in normal saline (NaCl)) is 10 kPa. Also, the “storage modulus (G′)” value in data set [3] (20 mg/mL hydrogel in phosphate buffered saline (PBS)) is reported as 40 kPa. In data set [3] (20 mg/mL hydrogel in water), the “storage modulus (G′)” value turned out to be 1 kPa. Further, the “storage modulus (G′)” value in data set [3] (20 mg/mL hydrogel with addition of sodium hydroxide (NaOH)) is recorded as 80 kPa. Besides, in data set [4] (20 mg/mL in PBS with Gd-DTPA, or with labeled donor rabbit NP cells, two month post-treatment), the “immune response and tissue integration in histology sections of discs” value is “integrated with the tissue and did not elicit an immune response”. The “time to gelation in situ” value in data set [4] (approximately 100 μL of 20 mg/mL peptide in PBS injected into a damaged NP) was no more than 5 min. Moreover, in the data set with guinea pigs, the “irritation or allergic reactions” value is “no irritation or allergic reactions”, the “reactions following subsequent immune challenge” value is on record as “no reactions were observed” and the “systemic signs of toxicity” value was “did not exhibit any systemic signs of toxicity”. Moreover, in data set [5], the “Breaks SB (chromosome break)” value turned out to be 2, the “Breaks TB (chromatid break)” value was 3, the “Cells with aberrations (excluding gaps)” value was 5 and the “D (deletion)” value worked out at 0. Moreover, in data set [5], the “Gaps SG (chromosome gap)” value is on record as 2, the “Inter Chromosomal Rearrangements CR (complex)” value turned out to be 0, the “Inter Chromosomal Rearrangements DC (dicentric chromosome)” value came to 0 and the “Inter Chromosomal Rearrangements QR (quadradial)” value was 0. Moreover, in data set [5], the “Inter Chromosomal Rearrangements R (ring)” value is 0, the “Inter Chromosomal Rearrangements TR (triradial)” value came to 0, the “Other aberrations DM (double minute)” value is on record as 0 and the “Other aberrations PV (pulverized)” value is listed as 0. Further, in data set [5], the “mutagenicity (genotoxicity assays)” value is “non-mutagenic”.
